Test results: the supplement of paper PMC10307832

Tests used:
Assay in all cases: relative viability (nuclei count vs DMSO), 5 days (fraction); higher = more cells survive
[1] = compound: CC(C)(C)c1nc(-c2cccc(NS(=O)(=O)c3c(F)cccc3F)c2F)c(-c2ccnc(N)n2)s1 [Dabrafenib] + O=C(CCCCCCC(=O)Nc1ccccc1)NO [Vorinostat] (partner 1 µM)
In short: (§1)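 Relative viability divides the nuclei count in treated wells by that in vehicle wells. Lung cancer cell lines were seeded in 1536-well plates, dosed by pin tool the next day, and fixed and stained after 5 days in one step with final 0.05% Triton X-100, 1% formaldehyde and 1 ug/ml Hoechst. Dosing was a single drug or a fixed anchor-drug dose plus five library-drug doses (not always all listed) in √10 steps, and values are medians of duplicate plates imaged at 4×.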

[2] = compound: NC(=O)c1ccc(N(C(N)=O)c2c(F)cccc2F)nc1-c1ccc(F)cc1F [VX-702] + O=C(CCCCCCC(=O)Nc1ccccc1)NO [Vorinostat] (partner 1 µM)
In short: as §1

[3] = compound: CC(C)(C)c1nc(-c2cccc(NS(=O)(=O)c3c(F)cccc3F)c2F)c(-c2ccnc(N)n2)s1 [Dabrafenib] + N=C(N)NC(=N)NCCc1ccccc1 [Phenformin] (partner 250 µM)
In short: as §1

[4] = compound: NC(=O)c1ccc(N(C(N)=O)c2c(F)cccc2F)nc1-c1ccc(F)cc1F [VX-702] + CS(=O)(=O)CCNCc1ccc(-c2ccc3ncnc(Nc4ccc(OCc5cccc(F)c5)c(Cl)c4)c3c2)o1 [Lapatinib] (partner 2 µM)
In short: as §1

Cell Line	relative viability ([1]; first compound 0.003 µM)	relative viability ([1]; first compound 0.009487 µM)	relative viability ([1]; first compound 0.03 µM)	relative viability ([1]; first compound 0.09487 µM)	relative viability ([1]; first compound 0.3 µM)	relative viability ([2]; first compound 0.02 µM)	relative viability ([2]; first compound 0.2 µM)	relative viability ([2]; first compound 0.6325 µM)	relative viability ([2]; first compound 2 µM)	relative viability ([3]; first compound 0.003 µM)	relative viability ([3]; first compound 0.009487 µM)	relative viability ([3]; first compound 0.03 µM)	relative viability ([3]; first compound 0.09487 µM)	relative viability ([3]; first compound 0.3 µM)	relative viability ([4]; first compound 0.02 µM)	relative viability ([4]; first compound 0.2 µM)	relative viability ([4]; first compound 0.6325 µM)	relative viability ([4]; first compound 2 µM)
NCI-H520	0.82	0.753	0.63	0.823	0.74	0.744	0.649	0.691	0.74	0.431	0.638	0.289	0.442	0.612	0.809	1.05	0.798	1.05
HCC-44	1.07	1.06	1.28	1.05	1.08	1.17	1.09	1.19	1.16	–	0.173	0.183	0.227	0.235	1.03	1.03	0.982	1.05
NCI-H1915	0.544	0.576	0.414	0.219	0.206	0.578	0.513	0.492	0.548	0.392	0.402	0.266	0.29	0.272	1.05	1	1	1.07
NCI-H358	0.86	0.695	0.741	0.689	0.72	0.675	0.601	0.669	0.972	0.193	0.457	0.467	0.344	0.419	0.485	0.442	0.484	0.546
NCI-H1395	–	0.699	0.719	0.662	0.667	0.701	0.686	0.683	0.884	0.325	0.462	0.447	0.403	0.437	0.898	1.16	1.09	1.17
NCI-H2126	0.693	0.916	0.767	0.888	0.993	0.76	0.741	0.754	0.632	0.521	0.551	0.557	0.601	0.565	0.752	0.763	0.74	0.824
NCI-H596	–	0.723	0.416	0.725	0.515	0.636	0.439	0.637	0.581	–	1.11	0.65	0.687	0.748	1.09	1.01	1.13	1.1
NCI-H23	–	0.548	0.592	0.354	0.409	0.491	0.566	0.575	0.669	–	0.816	0.762	0.51	0.687	1.12	1.01	1.04	1.25
NCI-H650	–	0.346	0.408	0.241	0.218	0.607	0.309	0.494	0.609	–	0.475	0.393	0.262	0.35	0.876	–	0.43	1.16
UMC-11	0.379	0.362	0.409	0.473	0.454	0.339	0.293	0.353	0.376	0.289	0.331	0.332	0.329	0.279	0.866	0.908	0.769	1.04
LK-2	0.333	0.228	0.268	0.265	0.34	0.258	0.275	0.283	0.385	0.38	0.573	–	0.475	0.603	0.986	0.727	0.891	0.895
COR-L23	0.387	0.418	0.441	0.412	0.44	0.511	0.47	0.46	0.491	0.466	0.425	0.431	0.396	0.431	0.999	0.862	0.914	1.26
NCI-H2405	–	1	0.488	0.81	0.962	1.1	0.909	0.972	1.1	–	0.286	–	0.37	0.371	1.23	0.761	1.02	1.46
HOP-62	0.199	0.806	0.555	0.341	0.5	0.869	0.697	0.744	0.817	0.518	0.604	0.627	0.491	0.495	1.04	0.894	1.08	0.975
NCI-H1975	0.636	0.742	0.741	0.705	0.663	0.752	0.719	0.701	0.786	0.227	0.411	0.411	0.356	0.363	0.925	1.03	0.961	1.22
NCI-H2085	0.669	1.01	0.801	0.79	0.748	0.861	0.802	0.855	0.848	0.482	0.809	0.592	0.596	0.714	0.81	0.739	0.767	0.808
NCI-H460	0.744	0.712	0.662	0.641	0.639	0.889	0.692	0.769	0.925	0.523	0.533	0.52	0.497	0.46	0.931	0.906	1.14	0.984
NCI-H1755	0.849	0.726	0.558	0.771	0.728	0.929	0.748	0.731	0.877	0.565	0.627	0.544	0.591	0.629	1.08	1.02	1.09	1.09
